The target of data set [1] is T1, AmpC β-lactamase (Escherichia coli, UniProt P00811). Format: biochemical. Conditions: read-out: Km of nitrocefin for AmpC; substrate; 100 mM Tris-HCl pH 7.0.
For the next data set, the target named is CTX-M β-lactamase (Escherichia coli, UniProt Q9L5C8). Format: biochemical. Conditions: Ki AmpC versus Ki CTX-M.
In data set [2] the test system is O=C(Cc1cccs1)N[C@@H]1C(=O)N2C(C(=O)O)=C(/C=C/c3ccc([N+](=O)[O-])cc3[N+](=O)[O-])CS[C@H]12. The data set can be described thus: purified protein, by the assay type. Particulars: other: substrate, 100 mM Tris-HCl pH 7.0, 19.0 °C.
In data set [3] the target is T1, AmpC β-lactamase. Particulars: at relevant concentrations; no reference given; cited from earlier work.

T1 sequence (P00811 20-377): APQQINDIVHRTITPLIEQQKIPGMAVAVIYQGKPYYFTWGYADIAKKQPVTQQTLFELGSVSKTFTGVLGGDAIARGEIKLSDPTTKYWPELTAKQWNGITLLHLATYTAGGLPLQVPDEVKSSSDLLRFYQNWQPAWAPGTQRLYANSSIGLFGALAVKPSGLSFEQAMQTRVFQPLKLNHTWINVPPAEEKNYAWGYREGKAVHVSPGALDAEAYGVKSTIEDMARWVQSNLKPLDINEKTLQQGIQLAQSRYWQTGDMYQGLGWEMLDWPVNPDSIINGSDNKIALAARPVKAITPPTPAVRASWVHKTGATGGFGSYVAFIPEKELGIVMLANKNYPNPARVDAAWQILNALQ

The term Km denotes the concentration of substrate that gives half-maximal velocity. With `O=C(Cc1cccs1)N[C@@H]1C(=O)N2C(C(=O)O)=C(/C=C/c3ccc([N+](=O)[O-])cc3[N+](=O)[O-])CS[C@H]12` [nitrocefin], at AmpC β-lactamase [1], the Km is 400 µM. `O=C(Nc1cccc(-c2nnn[nH]2)c1)c1cccc(F)c1` [Compound 12]: the “specificity (CTX-M over AmpC)” value at CTX-M β-lactamase is “over 100 fold”. As to CTX-M β-lactamase (Escherichia coli), the Michaelis constant (Km) in data set [2] was 11.6 µM. Regarding `O=C(O)[C@H]1/C(=C/CO)O[C@@H]2CC(=O)N21` [clavulanate], on AmpC β-lactamase [3], the “inhibition of AmpC” value is reported as “does not inhibit AmpC at relevant concentrations”.

(Values after paper PMC4006998 (Nature chemical biology, 2009).)
